Percent BCL6 remaining data for 22 molecules are collected here from US12404239B2, “Modulators of BCL6 as ligand directed degraders” (Celgene Corporation, priority 2022, dated 2025).

This assay addresses T1, BCL6 (Homo sapiens, UniProt P41182).
T1 construct: HiBiT-tag knocked into endogenous BCL6 locus using CRISPR; endogenous in cells; host or cells: DHL-4_BCL6_HiBiT cells (CRISPR knock-in)
Put plainly: BCL6_HiBiT degradation assay (2 h). The format is cell-based. As to conditions: DHL-4_BCL6_HiBiT cells, read-out: YCon (% remaining maximal effect). How it is done: A DHL-4 cell line with HiBiT-tag knocked into endogenous BCL6 locus using CRISPR was generated. The DHL-4_BCL6_HiBiT cells were dispensed into 384-well plates (Corning no. 3570) that were pre-spotted with compounds. Compounds were dispensed by an acoustic dispenser (ATS acoustic transfer system from EDC Biosystems) into a 384-well plate in a 10-point dose response curve using 3-fold dilutions starting at 1-10 μM and going down to […]. 25 μL of media (RPMI-1640+10% heat inactivated FBS+1×Pen/Strep) containing 2500 of DHL-4 was dispensed per well. Assay plates were incubated at 37° C. with 5% CO2 for 2 hours. After incubation, 25 μL of the Nano-Glo HiBiT lytic detection working solution (Promega, catalogue no. N3040, Madison, WI) was added to each well and incubated at room temperature for 15-30 min, protected from light. After 30 min, luminescence was read on an Envision or PHERAstar luminescence reader. To determine the EC50 value (the half-maximum effective concentration) and the level of the gradation (Yconstant) of a BCL6 degrader, luminescent signal normalized by DMSO control (Y) and compound concentration (x) was fitted using a four-parameter dose-response model (Y=(A+((B−A)/1+((C/x)^D) in Dotmatics. Fitted value C is the degradation EC50 and the minimum value A is the Y constant.
The degradation of BCL6 at 2 h in DHL-4 results are shown in Table 5, where EC50 is the half maximal effect and Ycon is the % remaining maximal effect.
A general note: With HiBiT, luminescence reflects the tagged protein that the partner subunit can reach.
As for `C[C@@H]1CN(c2ncc(Cl)c(Nc3ccc4c(c3)CC(=O)N4CC(C)(F)F)n2)CC[C@H]1Nc1ccc2c([C@@H]3CCC(=O)NC3=O)nn(C)c2c1` (single isomer, unassigned) [Example 112], the Percent BCL6 remaining at maximal degradation (Ycon) was less than 20%.
In the case of `CN1C(=O)Cc2cc(Nc3nc(N(C)[C@H]4CCN(c5ccc6c(C7CCC(=O)NC7=O)nn(C)c6c5)C(=O)C4)ncc3Cl)ccc21` (single isomer, unassigned) [Example 128] it was 20 to 60%; in that of `CN1C(=O)Cc2cc(Nc3nc(N(C)[C@@H]4CCN(c5ccc6c(C7CCC(=O)NC7=O)nn(C)c6c5)C(=O)C4)ncc3Cl)ccc21` (single isomer, unassigned) [Example 129], less than 20%.
In the case of `C[C@H]1C(=O)N(c2ccc3c(C4CCC(=O)NC4=O)nn(C)c3c2)CC[C@@H]1N(C)c1ncc(Cl)c(Nc2ccc3c(c2)CC(=O)N3C)n1` (single isomer, unassigned) [Example 130] it was greater than 60%; in that of `C[C@@H]1C(=O)N(c2ccc3c(C4CCC(=O)NC4=O)nn(C)c3c2)CC[C@H]1N(C)c1ncc(Cl)c(Nc2ccc3c(c2)CC(=O)N3C)n1` (single isomer, unassigned) [Example 131], less than 20%; in that of `CN1C(=O)Cc2cc(Nc3nc(N4CC[C@@H](Nc5ccc6c(C7CCC(=O)NC7=O)nn(C)c6c5)[C@@H](C(F)(F)F)C4)ncc3Cl)ccc21` (single isomer, unassigned) [Example 148], greater than 60%.
The same measure for `CN1C(=O)Cc2cc(Nc3nc(N4CCC(Nc5ccc6c(C7CCC(=O)NC7=O)nn(C)c6c5)CC45CCC5)ncc3Cl)ccc21` (stereo not shown) [Example 1, 3-(6-((5-(5-chloro-4-((1-methyl-2-oxoindolin-5-yl)amino)pyrimidin-2-yl)-5-azaspiro[3.5]nonan-8-yl)amino)-1-methyl-1H-indazol-3-yl)piperidine-2,6-dione]: 20 to 60%; for `CN1C(=O)Cc2cc(Nc3nc(N(C)C4CCN(c5ccc6c(C7CCC(=O)NC7=O)nn(C)c6c5)C5(CCC5)C4)ncc3Cl)ccc21` (stereo not shown) [Example 2, 3-(6-(8-((5-chloro-4-((1-methyl-2-oxoindolin-5-yl)amino)pyrimidin-2-yl)(methyl)amino)-5-azaspiro[3.5]nonan-5-yl)-1-methyl-1H-indazol-3-yl)piperidine-2,6-dione]: less than 20%; for `CN1C(=O)Cc2cc(Nc3nc(N(C)[C@H]4CC[C@H](Nc5ccc6c(C7CCC(=O)NC7=O)nn(C)c6c5)CC4)ncc3Cl)ccc21` (stereo partly drawn) [Example 3, 3-(6-(((trans)-4-((5-chloro-4-((1-methyl-2-oxoindolin-5-yl)amino)pyrimidin-2-yl)(methyl)amino)cyclohexyl)amino)-1-methyl-1H-indazol-3-yl)piperidine-2,6-dione]: greater than 60%.
In the case of `C[C@@H]1C[C@H](N(C)c2ncc(Cl)c(Nc3ccc4c(c3)CC(=O)N4C)n2)CCN1c1ccc2c(C3CCC(=O)NC3=O)nn(C)c2c1` (stereo partly drawn) [Example 4, 3-(6-((2R,4R)-4-((5-chloro-4-((1-methyl-2-oxoindolin-5-yl)amino)pyrimidin-2-yl)(methyl)amino)-2-methylpiperidin-1-yl)-1-methyl-1H-indazol-3-yl)piperidine-2,6-dione], the Percent BCL6 remaining at maximal degradation (Ycon) is less than 20%.
For `CC1CN(c2ncc(Cl)c(Nc3ccc4c(c3)CC(=O)N4C)n2)CC(=O)N1c1ccc2c(C3CCC(=O)NC3=O)nn(C)c2c1` (stereo not shown) [Example 5, 3-(6-(4-(5-chloro-4-((1-methyl-2-oxoindolin-5-yl)amino)pyrimidin-2-yl)-2-methyl-6-oxopiperazin-1-yl)-1-methyl-1H-indazol-3-yl)piperidine-2,6-dione], the Percent BCL6 remaining at maximal degradation (Ycon) was greater than 60%.
Take `CN1C(=O)Cc2cc(Nc3nc(N(C)C4CCN(c5ccc6c(C7CCC(=O)NC7=O)nn(C)c6c5)CC4)ncc3Cl)ccc21` (stereo not shown) [Example 6, 3-(6-(4-((5-Chloro-4-((1-methyl-2-oxoindolin-5-yl)amino)pyrimidin-2-yl)(methyl)amino)piperidin-1-yl)-1-methyl-1H-indazol-3-yl)piperidine-2,6-dione]: the Percent BCL6 remaining at maximal degradation (Ycon) was greater than 60%.
The same measure for `CN1C(=O)Cc2cc(Nc3nc(N4CCC(N(C)c5ccc6c(C7CCC(=O)NC7=O)nn(C)c6c5)CC4)ncc3Cl)ccc21` (stereo not shown) [Example 7, 3-(6-((1-(5-chloro-4-((1-methyl-2-oxoindolin-5-yl)amino)pyrimidin-2-yl)piperidin-4-yl)(methyl)amino)-1-methyl-1H-indazol-3-yl)piperidine-2,6-dione]: greater than 60%; for `Cn1nc(C2CCC(=O)NC2=O)c2ccc(N3CCC(Nc4ncc(Cl)c(Nc5ccc6c(c5)N(CCC(C)(C)O)C(=O)C6)n4)CC3)cc21` (stereo not shown) [Example 8, 3-(6-(4-((5-chloro-4-((1-(3-hydroxy-3-methylbutyl)-2-oxoindolin-6-yl)amino)pyrimidin-2-yl)amino)piperidin-1-yl)-1-methyl-1H-indazol-3-yl)piperidine-2,6-dione]: greater than 60%; for `Cn1nc(C2CCC(=O)NC2=O)c2ccc(NC3CCN(c4ncc(Cl)c(Nc5ccc6c(c5)N(CCC(C)(C)O)C(=O)C6)n4)CC3)cc21` (stereo not shown) [Example 9, 3-[6-[[1-[5-Chloro-4-[[1-(3-hydroxy-3-methyl-butyl)-2-oxo-indolin-6-yl]amino]pyrimidin-2-yl]-4-piperidyl]amino]-1-methyl-indazol-3-yl]piperidine-2,6-dione]: greater than 60%.
In the case of `CN(c1ccc2c(C3CCC(=O)NC3=O)nn(C)c2c1)C1CCN(c2ncc(Cl)c(Nc3ccc4c(c3)N(CCC(C)(C)O)C(=O)C4)n2)CC1` (stereo not shown) [Example 10, 3-(6-((1-(5-chloro-4-((1-(3-hydroxy-3-methylbutyl)-2-oxoindolin-6-yl)amino)pyrimidin-2-yl)piperidin-4-yl)(methyl)amino)-1-methyl-1H-indazol-3-yl)piperidine-2,6-dione] it was 20 to 60%; in that of `CN(c1ncc(Cl)c(Nc2ccc3c(c2)N(CCC(C)(C)O)C(=O)C3)n1)C1CCN(c2ccc3c(C4CCC(=O)NC4=O)nn(C)c3c2)CC1` (stereo not shown) [Example 11, 3-(6-(4-((5-chloro-4-((1-(3-hydroxy-3-methylbutyl)-2-oxoindolin-6-yl)amino)pyrimidin-2-yl)(methyl)amino)piperidin-1-yl)-1-methyl-1H-indazol-3-yl)piperidine-2,6-dione], greater than 60%.
The same measure for `C[C@@H]1CN(c2ncc(Cl)c(Nc3ccc4c(c3)CC(=O)N4C)n2)CC[C@@H]1Nc1ccc2c(C3CCC(=O)NC3=O)nn(C)c2c1` (stereo partly drawn) [Example 12, 3-(6-{[(3R,4S)-1-{5-chloro-4-[(1-methyl-2-oxo-2,3-dihydro-1H-indol-5-yl)amino]pyrimidin-2-yl}-3-methylpiperidin-4-yl]amino}-1-methyl-1H-indazol-3-yl)piperidine-2,6-dione]: less than 20%.
As to `C[C@H]1CN(c2ncc(Cl)c(Nc3ccc4c(c3)CC(=O)N4C)n2)CC[C@H]1Nc1ccc2c(C3CCC(=O)NC3=O)nn(C)c2c1` (stereo partly drawn) [Example 13, 3-(6-(((3S,4R)-1-(5-chloro-4-((1-methyl-2-oxoindolin-5-yl)amino)pyrimidin-2-yl)-3-methylpiperidin-4-yl)amino)-1-methyl-1H-indazol-3-yl)piperidine-2,6-dione], the Percent BCL6 remaining at maximal degradation (Ycon) was greater than 60%.
In the case of `C[C@H]1CN(c2ncc(Cl)c(Nc3ccc4c(c3)CC(=O)N4C)n2)CC[C@@H]1Nc1ccc2c(C3CCC(=O)NC3=O)nn(C)c2c1` (stereo partly drawn) [Example 14, 3-(6-(((3S,4S)-1-(5-chloro-4-((1-methyl-2-oxoindolin-5-yl)amino)pyrimidin-2-yl)-3-methylpiperidin-4-yl)amino)-1-methyl-1H-indazol-3-yl)piperidine-2,6-dione] it was greater than 60%; in that of `CN1C(=O)Cc2cc(Nc3nc(N(C)C4CC5CCC(C4)N5c4ccc5c(C6CCC(=O)NC6=O)nn(C)c5c4)ncc3Cl)ccc21` [Example 15, 3-(6-((1R,3s,5S)-3-((5-chloro-4-((1-methyl-2-oxoindolin-5-yl)amino)pyrimidin-2-yl)(methyl)amino)-8-azabicyclo[3.2.1]octan-8-yl)-1-methyl-1H-indazol-3-yl)piperidine-2,6-dione], greater than 60%; in that of `CN1C(=O)Cc2cc(Nc3nc(N(C)[C@H]4C[C@H]5CC[C@@H](C4)N5c4ccc5c(C6CCC(=O)NC6=O)nn(C)c5c4)ncc3Cl)ccc21` (stereo partly drawn) [Example 16, 3-(6-((1R,3r,5S)-3-((5-chloro-4-((1-methyl-2-oxoindolin-yl)amino)pyrimidin-2-yl)(methyl)amino)-8-azabicyclo[3.2.1]octan-8-yl)-1-methyl-1H-indazol-3-yl)piperidine-2,6-dione], 20 to 60%.
